# “And” between values parts separate entries of the source, which are not always exact repeats. Identical values can stand only once. Inconclusive results and toxic doses are left out.
# System: CD2F1 mice, L1210 leukemia sc, survival T/C
# Assay: NCI In Vivo Anticancer Drug Screen. Data for tumor model L1210 Leukemia (subcutaneous) in CD2F1 (CDF1) mice
# Conditions: endpoint: median survival time, higher = longer survival
# In short: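 T/C ratio: treated-group survival or tumor size over vehicle-control group measurement, in mice carrying transplanted tumors.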
# [1] = dose: 8.4 mg/kg/injection, schedule: Q01DX Z (sc), vehicle: water
# [2] = dose: 14.0 mg/kg/injection, schedule: Q01DX Z (sc), vehicle: water
smiles,measurement,setting,value
S=P(N1CC1)(N1CC1)N1CC1,T/C,"dose: 1.5 mg/kg/injection, schedule: Q01DX009 (ip), vehicle: water",107 % of control
same,T/C,"dose: 1.5 mg/kg/injection, schedule: Q01DX009 (sc), vehicle: water",105 % of control
same,T/C,"dose: 3.0 mg/kg/injection, schedule: Q01DX009 (ip), vehicle: water",105 % of control
same,T/C,"dose: 3.0 mg/kg/injection, schedule: Q01DX009 (sc), vehicle: saline",121 % of control
same,T/C,"dose: 3.0 mg/kg/injection, schedule: Q01DX009 (sc), vehicle: water",101 % of control
same,T/C,"dose: 6.0 mg/kg/injection, schedule: Q01DX009 (ip), vehicle: water",121 % of control
same,T/C,"dose: 6.0 mg/kg/injection, schedule: Q01DX009 (sc), vehicle: saline",166 % of control and 176 % of control
same,T/C,"dose: 6.0 mg/kg/injection, schedule: Q01DX009 (sc), vehicle: water",122 % of control
same,T/C,"dose: 24.0 mg/kg/injection, schedule: Q01DX009 (ip), vehicle: water",194 % of control
same,T/C,"dose: 24.0 mg/kg/injection, schedule: Q01DX009 (sc), vehicle: water",157 % of control
same,T/C,"dose: 12.0 micrograms/kg/injection, schedule: Q01DX009 (ip), vehicle: saline",100 % of control
same,T/C,"dose: 12.0 micrograms/kg/injection, schedule: Q01DX009 (sc), vehicle: saline",107 % of control
same,T/C,"dose: 25.0 micrograms/kg/injection, schedule: Q01DX009 (ip), vehicle: saline",104 % of control
same,T/C,"dose: 25.0 micrograms/kg/injection, schedule: Q01DX009 (sc), vehicle: saline",98 % of control
same,T/C,"dose: 50.0 micrograms/kg/injection, schedule: Q01DX009 (ip), vehicle: saline",104 % of control
same,T/C,"dose: 50.0 micrograms/kg/injection, schedule: Q01DX009 (sc), vehicle: saline",100 % of control
same,T/C,"dose: 100.0 micrograms/kg/injection, schedule: Q01DX009 (ip), vehicle: saline",100 % of control
same,T/C,"dose: 100.0 micrograms/kg/injection, schedule: Q01DX009 (sc), vehicle: saline",98 % of control
same,T/C,"dose: 200.0 micrograms/kg/injection, schedule: Q01DX009 (ip), vehicle: saline",96 % of control
same,T/C,"dose: 200.0 micrograms/kg/injection, schedule: Q01DX009 (sc), vehicle: saline",102 % of control
same,T/C,"dose: 400.0 micrograms/kg/injection, schedule: Q01DX009 (ip), vehicle: saline",102 % of control
same,T/C,"dose: 400.0 micrograms/kg/injection, schedule: Q01DX009 (sc), vehicle: saline",102 % of control
O=C(CCBr)N1CCN(C(=O)CCBr)CC1,T/C,"dose: 28.0 mg/kg/injection, schedule: Q01DX Z (sc), vehicle: methylcellulose (MC)",111 % of control
same,T/C,"dose: 47.0 mg/kg/injection, schedule: Q01DX Z (sc), vehicle: methylcellulose (MC)",111 % of control
same,T/C,"dose: 78.0 mg/kg/injection, schedule: Q01DX Z (sc), vehicle: methylcellulose (MC)",122 % of control
same,T/C,"dose: 360.0 mg/kg/injection, schedule: Q01DX Z (sc), vehicle: methylcellulose (MC)",122 % of control
Nc1nncs1,T/C,"dose: 39.0 mg/kg/injection, schedule: Q02DX005 (sc), vehicle: water",100 % of control and 103 % of control
same,T/C,"dose: 65.0 mg/kg/injection, schedule: Q02DX005 (sc), vehicle: water",100 % of control and 102 % of control
same,T/C,"dose: 108.0 mg/kg/injection, schedule: Q02DX005 (sc), vehicle: water",100 % of control and 106 % of control
same,T/C,"dose: 180.0 mg/kg/injection, schedule: Q02DX005 (sc), vehicle: water",122 % of control
same,T/C,"dose: 300.0 mg/kg/injection, schedule: Q02DX005 (sc), vehicle: water",166 % of control and 180 % of control
same,T/C,"dose: 300.0 mg/kg/injection, schedule: Q04DX003 (sc), vehicle: saline",100 % of control and 104 % of control
same,T/C,"dose: 500.0 mg/kg/injection, schedule: Q02DX005 (sc), vehicle: water",172 % of control and 180 % of control
same,T/C,"dose: 500.0 mg/kg/injection, schedule: Q04DX003 (sc), vehicle: saline",105 % of control and 112 % of control
same,T/C,"dose: 833.0 mg/kg/injection, schedule: Q04DX003 (sc), vehicle: saline",116 % of control and 124 % of control
same,T/C,"dose: 1388.0 mg/kg/injection, schedule: Q04DX003 (sc), vehicle: saline",154 % of control
CC1CN=C(c2ccc(NC(=O)c3ccc(C(=O)Nc4ccc(C5=NCC(C)N5)cc4)cc3)cc2)N1 (stereo unspecified),T/C,"dose: 1.8 mg/kg/injection, schedule: Q01DX Z (sc), vehicle: water",115 % of control
same,T/C,"dose: 3.0 mg/kg/injection, schedule: Q01DX Z (sc), vehicle: water",155 % of control
same,T/C,"dose: 5.0 mg/kg/injection, schedule: Q01DX Z (sc), vehicle: water",240 % of control
same,T/C,[1],255 % of control
same,T/C,[2],230 % of control
O=C(Nc1ccc(C2=NCCN2)cc1)c1ccc(C(=O)Nc2ccc(C3=NCCN3)cc2)c(Cl)c1,T/C,"dose: 5.0 mg/kg/injection, schedule: Q01DX Z (iv), vehicle: water",100 % of control
same,T/C,"dose: 8.4 mg/kg/injection, schedule: Q01DX Z (iv), vehicle: water",100 % of control
same,T/C,[1],120 % of control and 227 % of control
same,T/C,"dose: 14.0 mg/kg/injection, schedule: Q01DX Z (iv), vehicle: water",100 % of control
same,T/C,[2],188 % of control and 195 % of control and 233 % of control
same,T/C,"dose: 23.0 mg/kg/injection, schedule: Q01DX Z (sc), vehicle: water",205 % of control and 220 % of control and 261 % of control
same,T/C,"dose: 39.0 mg/kg/injection, schedule: Q01DX Z (iv), vehicle: water",111 % of control
same,T/C,"dose: 39.0 mg/kg/injection, schedule: Q01DX Z (sc), vehicle: water",211 % of control and 225 % of control and 183 % of control
same,T/C,"dose: 65.0 mg/kg/injection, schedule: Q01DX Z (iv), vehicle: water",155 % of control
same,T/C,"dose: 65.0 mg/kg/injection, schedule: Q01DX Z (sc), vehicle: water",188 % of control and 200 % of control and 166 % of control
